Laboratory results as given in US11647776B2, “Extract, consumable product and method for enriching bioactive metabolite in an extract” (Brightseed, Inc., priority 2019, dated 2023).

Key:
red potatoes [1] = experiment: wounding combined with precursor exposure: N-trans-feruloyltyramine production in sliced red potatoes; design: species or system Solanum tuberosum; details: sliced red potatoes dipped in 400 μM tyramine or citric acid (pH ~4); for N-trans-feruloyltyramine production: 4 days at room temperature, water control
Protocol: Red potatoes were sliced (i.e., and boiled in water for 6 minutes or dipped into abiotic […]) aqueous solutions of 400 μM tyramine or citric acid (pH ˜4).
For this analysis, red potatoes were sliced to a standard thickness (¼ inch; two potatoes/time point). Subsequently, the potato slices were either boiled in water for 6 minutes, or dipped into aqueous solutions of 400 μM tyramine (as precursor) or citric acid (pH ˜4; as a preservative), or water (control). The potato slices were loosely covered to allow for air flow and incubated for 4 days at room temperature.

Solanum tuberosum = experiment: wounding response of potato tubers (N-trans-feruloyltyramine production); details: wounded potatoes
Protocol: Thus, it was determined whether elevated levels tyramine containing hydroxycinnamic acid amides could be generated in situ by subjecting a plant to an abiotic stress, e.g., wounding. In particular, yellow tubers of Solanum tuberosum were wounded by wounding and production of N-trans-feruloyltyramine in the tuber was assessed 1, 5 and 9 days after wounding.

red potatoes [2] = experiment: wounding combined with THT enzyme elicitors: N-trans-feruloyltyramine production in sliced red potatoes; design: species or system Solanum tuberosum; details: sliced red potatoes dipped in 1 mg/ml laminaran, 10 mg/ml inactivated cordy-gen fungi or 10 mg/ml live endomycorrhizal fungi; 4 or 8 days at room temperature; water control
Protocol: Red potatoes were sliced (i.e., wounded) and dipped into aqueous solutions of 10 mg/ml live endomycorrhizal fungi, 10 mg/ml inactivated cordy-gen fungi, or 1 mg/ml laminaran (polysaccharide from brown algae).
For this analysis, red potatoes were sliced to a standard thickness. Subsequently, the potato slices were dipped into solutions of 10 mg/ml live endomycorrhizal fungi, 10 mg/ml inactivated cordy-gen fungi (from Mycopia), 1 mg/ml laminaran (polysaccharide from brown algae) or water (control) The potato slices were loosely covered to allow for air flow and incubated for 4 or 8 days at room temperature.

Row | production of N-trans-feruloyltyramine in response to wounding (red potatoes [2]) | Compound | browning of the wounded potato slices (red potatoes [1]) | N-trans-feruloyltyramine production (red potatoes [1]) | effect on the wounding response (Solanum tuberosum)
1 | – | O=C(O)CC(O)(CC(=O)O)C(=O)O [citric acid] | inhibited the browning pathway | little effect | –
2 | – | NCCc1ccc(O)cc1 [tyramine] | further increased browning | could enhance | enhanced the wounding response
3 | substantially enhanced | laminaran | – | – | –
